Test results reported in PMC3189958, “Salivary PYY: A Putative Bypass to Satiety” (PLoS ONE, 2011).
No end group written: not given here.

Columns and labels:
Y2 receptor = molecular target: T1, Y2 receptor (Mus musculus, UniProt P97295); test: Y2R antagonist study: oral spray of BIIE0246/PYY3-36 mixture, 2 hr FI after 24 hr fast; format: in vivo
T1 construct: from tissue; host or cells: live mice; oral mucosa / tongue epithelium
T1 sequence (P97295 1-381): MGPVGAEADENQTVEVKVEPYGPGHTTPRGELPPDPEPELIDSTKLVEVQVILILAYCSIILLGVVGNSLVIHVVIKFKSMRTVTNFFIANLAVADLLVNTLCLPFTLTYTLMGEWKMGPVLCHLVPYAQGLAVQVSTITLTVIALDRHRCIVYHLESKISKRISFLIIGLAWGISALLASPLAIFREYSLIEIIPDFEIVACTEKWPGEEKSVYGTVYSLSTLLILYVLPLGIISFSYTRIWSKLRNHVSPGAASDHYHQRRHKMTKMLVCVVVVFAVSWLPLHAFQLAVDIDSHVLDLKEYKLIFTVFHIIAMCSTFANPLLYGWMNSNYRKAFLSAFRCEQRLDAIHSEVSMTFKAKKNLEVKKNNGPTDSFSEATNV
Description: Direct proof of PYY3-36/Y2R interaction was obtained by utilizing a selective Y2 receptor antagonist BIIE0246 [26]. The antagonist and PYY3-36 agonist (12 mg/100 g BW) were mixed at the 50∶1 molar ratio, respectively, and the mixture was used to treat fasted mice as described above (Fig. 6H).
(§1) One ml total volume sterile vials were obtained from Sephora. Murine PYY3-36 (Bachem) was diluted in sterile H2O. All 8–10 weeks old mice were individually housed. Mice were conditioned to the oral spray with vehicle after 24 hours fast on three separate occasions. Groups were randomized by FI and BW. […] The applied dose was estimated using calculated average volume ([…]) delivered per puff. Food was provided 10 min after the spray was applied and the amount consumed was measured at either 1 hr after the treatment, or at several time points (1, 2, 4, 6, 12, 18, and 24 hours). Taking into account the nocturnal feeding pattern, the experiment was conducted during the night with the first measurement taken at 2000 hrs. Each experiment was done at least 3 times in a crossover manner with 8 mice per group. For the Y2R antagonist study, BIIE0246 compound (Tocris Bioscience, Ellisville, MO) was dissolved in 100% EtOH (0.2 mM) and the stock solution was mixed with PYY3-36 aqueous solution at the 50∶1 molar ratio (BIIE0246/PYY3-36) with the final concentration of 2% EtOH in the mixture. […]

DIO C57Bl/6J mice = test: Repeated once-a-day oral spray in DIO mice fed high fat diet ad libitum (FI and BW); format: in vivo, mouse; conditions: daily oral spray 18 mg/100 g, n = 9 per group
Description: Figure 6 Oral PYY3-36 augmentation therapy. […] Experiments for each peptide were conducted separately and the results were integrated in one graph as fractions of average amount of FI consumed by the control group. […] (B) Dose-response effect of PYY3-36 on 2 hr FI vs. control (n = 8 each group). (C) Effect of PYY3-36 oral spray on FI in C57Bl/6J mice measured at 1, 2, 6, 12, 18, and 24 hr post treatment (n = 8/group). (D) Effect of PYY3-36 oral spray on FI in PYY^-/- mice measured at 1, 2, 6, 12, 18, and 24 hr post treatment (n = 8/group). (E) Average 24-hr FI in DIO mice treated with daily PYY3-36 OS (18 mg/100 g). (F) Effect of daily PYY3-36 OS (18 mg/100 g) treatment on BW change in DIO C57Bl/6J mice (n = 9 per each group). (G) Concentration of PYY3-36 in plasma of PYY KO mice 10 min after PYY3-36 (18 mg/100 g BW), or control oral spray vs. PYY3-36 injected i.p. (6 mg/100 g BW) (n = 10 per group). (H) Effect of Y2R specific antagonist BIIE0246 on anorexigenic action of PYY3-36 (n = 8 per each group) measured as 2 hr FI after 24 hr fast.*P<0.05, **P<0.01.
Because of the sustained 24-hr effect, we tested whether repeated once-a-day treatment would also affect the FI and BW accumulation over extended period of time when animals were fed high fat (HF) diet ad libitum.

[1] = Concentration of PYY3-36 in plasma after oral spray or i.p. injection (RIA); format: in vivo, mouse; conditions: PYY KO mice, n = 10 per group
Description: To exclude potential interference with circulating background PYY in the plasma, we used PYY KO mice.
Blood was collected from facial vein puncture into EDTA-coated tubes (Capiject) containing protease inhibitors as described for saliva collection. Plasma samples were frozen at −80°C until analyzed.
(§2) PYY3-36 from saliva and plasma was measured by PYY3-36 RIA kit (Phoenix Pharmaceuticals). The identification of PYY3-36 from human saliva was performed by reverse-phase high performance liquid chromatography (RP-HPLC) followed by Matrix-Assisted Laser Desorption Ionization – Time of Flight (MALDI-TOF) mass spectrometry (MS). PYY3-36 synthetic peptide (Bachem) was used for calibration of all purification steps. Briefly, saliva was pre-purified using a Sep-Pak C18 cartridge (Waters) followed by purification on RP-HPLC uBondapak C18 column (Waters) as described. The PYY3-36-containing fraction was collected, air dried and reconstituted in 0.1% formic acid in 50% acetonitrile/water prior to analysis with MALDI-TOF as described, [40].

PYY KO mice = test: Oral spray satiation study, FI over 24 hours after single treatment, PYY KO mice; format: in vivo, mouse; conditions: n = 8/group
Description: To investigate the duration of action of orally applied PYY3-36 we conducted standard satiation studies in C57Bl/6J as well as in PYY KO mice measuring FI over 24 hours after single treatment.
as §1, with “mixture. Prior to this experiment, mice were conditioned to 2% EtOH spray on three separate occasions.” for “mixture.”

C57Bl/6J mice = test: Oral spray acute augmentation: food intake after 24 hours fasting; format: in vivo, mouse
Description: Figure 6 Oral PYY3-36 augmentation therapy. […] (B) Dose-response effect of PYY3-36 on 2 hr FI vs. control (n = 8 each group). (C) Effect of PYY3-36 oral spray on FI in C57Bl/6J mice measured at 1, 2, 6, 12, 18, and 24 hr post treatment (n = 8/group). (D) Effect of PYY3-36 oral spray on FI in PYY^-/- mice measured at 1, 2, 6, 12, 18, and 24 hr post treatment (n = 8/group). (E) Average 24-hr FI in DIO mice treated with daily PYY3-36 OS (18 mg/100 g). (F) Effect of daily PYY3-36 OS (18 mg/100 g) treatment on BW change in DIO C57Bl/6J mice (n = 9 per each group). (G) Concentration of PYY3-36 in plasma of PYY KO mice 10 min after PYY3-36 (18 mg/100 g BW), or control oral spray vs. PYY3-36 injected i.p. (6 mg/100 g BW) (n = 10 per group).
One ml total volume sterile vials were obtained from Sephora. Murine PYY3-36 (Bachem) was diluted in sterile H2O. All 8–10 weeks old mice were individually housed. Mice were conditioned to the oral spray with vehicle after 24 hours fast on three separate occasions. Groups were randomized by FI and BW. […] The applied dose was estimated using calculated average volume ([…]) delivered per puff. Food was provided 10 min after the spray was applied and the amount consumed was measured at either 1 hr after the treatment, or at several time points (1, 2, 4, 6, 12, 18, and 24 hours). Taking into account the nocturnal feeding pattern, the experiment was conducted during the night with the first measurement taken at 2000 hrs. Each experiment was done at least 3 times in a crossover manner with 8 mice per group. For the Y2R antagonist study, BIIE0246 compound (Tocris Bioscience, Ellisville, MO) was dissolved in 100% EtOH (0.2 mM) and the stock solution was mixed with PYY3-36 aqueous solution at the 50∶1 molar ratio (BIIE0246/PYY3-36) with the final concentration of 2% EtOH in the mixture. Prior to this experiment, mice were conditioned to 2% EtOH spray on three separate occasions. Wherever practical, the behavioral experiments were conducted in a blind fashion with the personnel uninformed about the treatment regimen.

rodents = conditions: i.p., ref [16]; cited from earlier work
[2] = PYY3-36 in saliva after i.p. injection (RIA); format: in vivo, mouse; conditions: male C57Bl/6J mice, 10 min post injection, n = 10 per group
Description: Some proteins enter saliva from salivary glands where they are expressed and secreted in an exocrine fashion via zymogen granules. Other peptides can enter saliva as a transudate from serum. To establish the source of salivary PYY3-36 we asked whether peptide circulating in a bloodstream can be transported into saliva. To this end, mice were injected intraperitoneally (i.p.) with increasing doses of murine synthetic PYY3-36 (Fig. 1F).
Salivation was stimulated as described earlier. Whole saliva was collected for 5 min from the oral cavity into Eppendorf tubes containing 5000 U Kallikrein inhibitor (Biomedicals) and 50 mM DPP-IV inhibitor (Linco Research). Saliva samples were frozen at −80°C until analyzed.
as §2, with “The PYY3-36-containing fraction was collected, air dried and reconstituted in 0.1% formic acid in 50% acetonitrile/water prior to analysis with MALDI-TOF as described, [40].” left out

Question: For `N=C(N)NCCC[C@H](NC(=O)CC1(CC(=O)N2CCN(C3c4ccccc4NC(=O)c4ccccc43)CC2)CCCC1)C(=O)NCCn1c(=O)n(-c2ccccc2)n(-c2ccccc2)c1=O` (stereo partly shown) [BIIE0246], which “effect of antagonist alone on 2 hr FI” value (Y2 receptor; BIIE0246 alone, data not shown) is on record?
Answer: no effect on 2 hr FI

Question: What about the “effect of antagonist on the anorexigenic action of PYY3-36, 2 hr FI” value (Y2 receptor; BIIE0246 mixed with PYY3-36 (12 mg/100 g BW) at 50:1 molar ratio, 2% EtOH, after 24 hr fast, n = 8 per group) of the same compound?
Answer: completely ablated the anorexigenic effect of PYY3-36

Question: For Peptide YY3-36 [PYY3-36], which BW accumulation (DIO C57Bl/6J mice; DIO C57Bl/6J mice, HF diet ad libitum) is on record?
Answer: retarded BW accumulation which became significantly on day 17th

Question: What about the “average 24-hr FI of HF food” value (DIO C57Bl/6J mice; DIO mice) of the same compound?
Answer: significantly less HF food

Question: And the “PYY3-36 in plasma 10 min after i.p. injection” value ([1]; i.p. 6 mg/100g BW)?
Answer: significant increase in PYY3-36 found in plasma

Question: And the “PYY3-36 in plasma 10 min after oral spray” value ([1]; oral spray 18 mg/100 g BW)?
Answer: no detectable PYY3-36 in the plasma

Question: And the “response of FI over 24 hours to the low dose” value (PYY KO mice; PYY KO mice, low dose 3 mg/100 g BW)?
Answer: responded to the treatment in significant manner observed after 18 and 24 hrs post experiment

Question: What about the “duration of anorexigenic response, FI over 24 hours after single treatment” value (PYY KO mice; PYY-/- mice, high dose 12 mg/100 g BW) of the same compound?
Answer: significant until the next treatment 24 hrs later

Question: And the “duration of anorexigenic response, FI over 24 hours after single treatment” value (C57Bl/6J mice; C57Bl/6J mice, oral spray, high dose 12 mg/100 g BW, n = 8/group)?
Answer: significant until the next treatment 24 hrs later

Question: What about the “response of FI over 24 hours to the low dose” value (C57Bl/6J mice; C57Bl/6J mice, oral spray, low dose 3 mg/100 g BW, n = 8/group) of the same compound?
Answer: only PYY KO mice responded

Question: What about the “one hour FI as % of control values at the maximum applied dose” value (C57Bl/6J mice; oral spray, dose-response, 12 mg/100 g, after 24 hr fast, n = 8 each group (legend Fig. 6B says 2 hr FI)) of the same compound?
Answer: 81%

Question: What about the “food consumed less than the control group, 1 hour FI” value (C57Bl/6J mice; oral spray, single puff, 3 mg/100 g BW, after 24 hours of fasting, food given 10 min after spray, average, n = 10 per group, C57Bl/6J mice) of the same compound?
Answer: 12.3%

Question: What about the “FI after intraperitoneal injection” value (rodents) of the same compound?
Answer: dose-dependent reduction in FI

Question: What about the “PYY3-36 in saliva after i.p. injection of increasing doses” value [2] of the same compound?
Answer: significant relationship between the injected dose and the concentration of the peptide detected in saliva

Question: For “amylin (KCNTATCATQRLANFLVRSSNNLGPVLPPTNVGSNTY; ends and bridges not checked; cysteine pairing not given here; UniProt P12968 38-74, looked up) [endocrine peptide tested by oral spray application]”, which “effect of oral spray application on FI” value (C57Bl/6J mice; oral spray, similar approach, data not shown) is on record?
Answer: no change of FI

Question: For “glucagon-like peptide-1 (HAEGTFTSDVSSYLEGQAAKEFIAWLVKGR; ends and bridges not checked; UniProt P55095 98-127, looked up) [GLP-1]”, which “effect of oral spray on 1 hour FI (satiation) vs control oral spray” value (C57Bl/6J mice; oral spray after 24 hours fasting, GLP-1 3 mg/100 g BW, Exendin-4 10 mg/100 g BW, n = 10 each group) is on record?
Answer: induced stronger satiation
